According to patent US10577378B2, “EIF4A-inhibiting compounds and methods related thereto” (eFFECTOR Therapeutics, Inc., priority 2015, dated 2020):

The compounds below were run on MDA-MB-231 human breast cancer cells (assay: Cell proliferation assay (CellTiter-Glo, 72 hours treatment)). Conditions: Homo sapiens; MDA-MB-231 cells, 72 hours at 37° C., CellTiter-Glo; read-out: MDA-MB-231 cell proliferation assay (IC50).
Assay type: cell-based
Outline: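 MDA-MB-231 cells seeded at 2,500 cells/well, treated next day with compound or DMSO vehicle for 72 h at 37 °C. Proliferation read by CellTiter-Glo; IC50 from sigmoidal non-linear regression, binned as +++ (<100 nM), ++ (100–1000 nM), + (>1000 nM).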

`COc1nc(C#N)cc2c1[C@]1(O)[C@H](O)[C@H](CN3CC(F)(F)C3)[C@@H](c3ccccc3)[C@]1(c1ccc(C#N)cc1)O2` (racemic) [207Fa, Rac-(5aR,6S,7S,8R,8aS)-5a-(4-cyanophenyl)-7-((3,3-difluoroazetidin-1-yl)methyl)-8,8a-dihydroxy-1-methoxy-6-phenyl-5a,7,8,8a-tetrahydro-6H-cyclopenta[4,5]furo[3,2-c]pyridine-3-carbonitrile] and `COc1nc(Cl)cc2c1[C@]1(O)[C@H](O)[C@H](CN3CC(F)(F)C3)[C@@H](c3ccccc3)[C@]1(c1ccc(C#N)cc1)O2` (racemic) [207Fb, Rac-4-((5aR,6S,7S,8R,8aS)-3-chloro-7-((3,3-difluoroazetidin-1-yl)methyl)-8,8a-dihydroxy-1-methoxy-6-phenyl-6,7,8,8a-tetrahydro-5aH-cyclopenta[4,5]furo[3,2-c]pyridin-5a-yl)benzonitrile] fall in the same range of IC50: 100 to 1000 nM for the first, 100 to 1000 nM for the second.

`COc1nc(C#N)cc2c1[C@]1(O)[C@H](O)[C@H](CN(C)CC(F)F)[C@@H](c3ccccc3)[C@]1(c1ccc(C#N)cc1)O2` (racemic) [208Fa, Rac-(5aR,6S,7S,8R,8aS)-5a-(4-cyanophenyl)-7-(((2,2-difluoroethyl)(methyl)amino)methyl)-8,8a-dihydroxy-1-methoxy-6-phenyl-5a,7,8,8a-tetrahydro-6H-cyclopenta[4,5]furo[3,2-c]pyridine-3-carbonitrile] and `COc1nc(Cl)cc2c1[C@]1(O)[C@H](O)[C@H](CN(C)CC(F)F)[C@@H](c3ccccc3)[C@]1(c1ccc(C#N)cc1)O2` (racemic) [208Fb, Rac-4-((5aR,6S,7S,8R,8aS)-3-chloro-7-(((2,2-difluoroethyl)(methyl)amino)methyl)-8,8a-dihydroxy-1-methoxy-6-phenyl-6,7,8,8a-tetrahydro-5aH-cyclopenta[4,5]furo[3,2-c]pyridin-5a-yl)benzonitrile] fall in the same range of IC50: 100 to 1000 nM for the first, 100 to 1000 nM for the second.

`COc1nc(Cl)cc2c1[C@]1(O)[C@@H](CN(C)C)[C@H](CO)[C@@H](c3ccccc3)[C@]1(c1ccc(Br)cc1)O2` (racemic) [209F, Rac-(5aR,6S,7R,8R,8aR)-5a-(4-bromophenyl)-3-chloro-8-((dimethylamino)methyl)-7-(hydroxymethyl)-1-methoxy-6-phenyl-5a,6,7,8-tetrahydro-8aH-cyclopenta[4,5]furo[3,2-c]pyridin-8a-ol] and `COc1nc(C#N)cc2c1[C@]1(O)[C@@H](CN(C)C)[C@H](CO)[C@@H](c3ccccc3)[C@]1(c1ccc(C#N)cc1)O2` (racemic) [210F, Rac-(5aR,6S,7R,8R,8aR)-5a-(4-cyanophenyl)-8-((dimethylamino)methyl)-8a-hydroxy-7-(hydroxymethyl)-1-methoxy-6-phenyl-5a,7,8,8a-tetrahydro-6H-cyclopenta[4,5]furo[3,2-c]pyridine-3-carbonitrile] cannot be ordered by IC50: under 100 nM for the first, under 100 nM for the second.

`COc1nc(C#N)cc2c1[C@]1(O)[C@H](O)[C@H](CN3CC(F)C3)[C@@H](c3ccccc3)[C@]1(c1ccc(C#N)cc1)O2` (racemic) [211Fa, Rac-(5aR,6S,7S,8R,8aS)-5a-(4-cyanophenyl)-7-((3-fluoroazetidin-1-yl)methyl)-8,8a-dihydroxy-1-methoxy-6-phenyl-5a,7,8,8a-tetrahydro-6H-cyclopenta[4,5]furo[3,2-c]pyridine-3-carbonitrile] and `COc1nc(C#N)cc2c1[C@]1(O)[C@H](O)[C@H](CN3CC(C(F)F)C3)[C@@H](c3ccccc3)[C@]1(c1ccc(C#N)cc1)O2` (racemic) [218F, Rac-(5aR,6S,7S,8R,8aS)-5a-(4-cyanophenyl)-7-((3-(difluoromethyl)azetidin-1-yl)methyl)-8,8a-dihydroxy-1-methoxy-6-phenyl-5a,7,8,8a-tetrahydro-6H-cyclopenta[4,5]furo[3,2-c]pyridine-3-carbonitrile] cannot be ordered by IC50: under 100 nM for the first, under 100 nM for the second.

`COc1nc(Cl)cc2c1[C@]1(O)[C@H](O)[C@H](CN3CC(F)C3)[C@@H](c3ccccc3)[C@]1(c1ccc(C#N)cc1)O2` (racemic) [211Fb, Rac-4-((5aR,6S,7S,8R,8aS)-3-chloro-7-((3-fluoroazetidin-1-yl)methyl)-8,8a-dihydroxy-1-methoxy-6-phenyl-6,7,8,8a-tetrahydro-5aH-cyclopenta[4,5]furo[3,2-c]pyridin-5a-yl)benzonitrile] and `COc1nc(Cl)cc2c1[C@]1(O)[C@H](O)[C@H](CN3CC(C(F)F)C3)[C@@H](c3ccccc3)[C@]1(c1ccc(C#N)cc1)O2` (racemic) [217F, rac-4-((5aR,6S,7S,8R,8aS)-3-chloro-7-((3-(difluoromethyl)azetidin-1-yl)methyl)-8,8a-dihydroxy-1-methoxy-6-phenyl-6,7,8,8a-tetrahydro-5aH-cyclopenta[4,5]furo[3,2-c]pyridin-5a-yl)benzonitrile] cannot be ordered by IC50: under 100 nM for the first, under 100 nM for the second.

`COc1nc(C#N)cc2c1[C@]1(O)[C@@H](CN3CCC(F)(F)CC3)[C@H](CO)[C@@H](c3ccccc3)[C@]1(c1ccc(C#N)cc1)O2` (racemic) [213F, Rac-(5aR,6S,7R,8R,8aR)-5a-(4-cyanophenyl)-8-((4,4-difluoropiperidin-1-yl)methyl)-8a-hydroxy-7-(hydroxymethyl)-1-methoxy-6-phenyl-5a,7,8,8a-tetrahydro-6H-cyclopenta[4,5]furo[3,2-c]pyridine-3-carbonitrile] and `COc1nc(C#N)cc2c1[C@]1(O)[C@H](O)[C@H](CN3CCC34CC4(F)F)[C@@H](c3ccccc3)[C@]1(c1ccc(C#N)cc1)O2` (mixture of isomers) [221F, Rac-(5aR,6S,7S,8R,8aS)-5a-(4-cyanophenyl)-7-((1,1-difluoro-4-azaspiro[2.3]hexan-4-yl)methyl)-8,8a-dihydroxy-1-methoxy-6-phenyl-5a,7,8,8a-tetrahydro-6H-cyclopenta[4,5]furo[3,2-c]pyridine-3-carbonitrile] cannot be ordered by IC50: under 100 nM for the first, under 100 nM for the second.

First: CC1(C)COCCN1C[C@H]1[C@@H](O)[C@@]2(O)c3ncc(Cl)cc3O[C@@]2(c2ccc(Br)cc2)[C@@H]1c1ccccc1 (racemic) [214F, Rac-(5aR,6S,7S,8R,8aS)-5a-(4-bromophenyl)-3-chloro-7-((3,3-dimethylmorpholino)methyl)-6-phenyl-5a,6,7,8-tetrahydro-8aH-cyclopenta[4,5]furo[3,2-b]pyridine-8,8a-diol]
Second: CN(C)C[C@H]1[C@@H](C#N)[C@@]2(O)c3ncc(Cl)cc3O[C@@]2(c2ccc(Br)cc2)[C@@H]1c1ccccc1 (racemic) [227F, Rac-(5aR,6S,7R,8S,8aR)-5a-(4-bromophenyl)-3-chloro-7-((dimethylamino)methyl)-8a-hydroxy-6-phenyl-5a,7,8,8a-tetrahydro-6H-cyclopenta[4,5]furo[3,2-b]pyridine-8-carbonitrile]
The IC50 of the first is lower: 100 to 1000 nM for the first, over 1000 nM for the second.

`COc1nc(Cl)cc2c1[C@]1(O)[C@H](O)[C@H](C(=O)N3CC(C(F)F)C3)[C@@H](c3ccccc3)[C@]1(c1ccc(Br)cc1)O2` (racemic) [215F, Rac-((5aR,6S,7R,8R,8aS)-5a-(4-bromophenyl)-3-chloro-8,8a-dihydroxy-1-methoxy-6-phenyl-5a,7,8,8a-tetrahydro-6H-cyclopenta[4,5]furo[3,2-c]pyridin-7-yl)(3-(difluoromethyl)azetidin-1-yl)methanone] and `COc1nc(Cl)cc2c1[C@]1(O)[C@H](O)[C@H](C(=O)N3CCC34CC4(F)F)[C@@H](c3ccccc3)[C@]1(c1ccc(Br)cc1)O2` (mixture of isomers) [219F, Rac-((5aR,6S,7R,8R,8aS)-5a-(4-bromophenyl)-3-chloro-8,8a-dihydroxy-1-methoxy-6-phenyl-5a,7,8,8a-tetrahydro-6H-cyclopenta[4,5]furo[3,2-c]pyridin-7-yl)(1,1-difluoro-4-azaspiro[2.3]hexan-4-yl)methanone] cannot be ordered by IC50: under 100 nM for the first, under 100 nM for the second.

`COc1nc(Cl)cc2c1[C@]1(O)[C@H](O)[C@H](CN3CCC34CC4(F)F)[C@@H](c3ccccc3)[C@]1(c1ccc(Br)cc1)O2` (mixture of isomers) [220F, Rac-(5aR,6S,7S,8R,8aS)-5a-(4-bromophenyl)-3-chloro-7-((1,1-difluoro-4-azaspiro[2.3]hexan-4-yl)methyl)-1-methoxy-6-phenyl-5a,6,7,8-tetrahydro-8aH-cyclopenta[4,5]furo[3,2-c]pyridine-8,8a-diol] and `COc1nc(Cl)cc2c1[C@]1(O)[C@H](O)[C@H](CN3CCC34CC4(F)F)[C@@H](c3ccccc3)[C@]1(c1ccc(C#N)cc1)O2` (mixture of isomers) [222F, Rac-4-((5aR,6S,7S,8R,8aS)-3-chloro-7-((1,1-difluoro-4-azaspiro[2.3]hexan-4-yl)methyl)-8,8a-dihydroxy-1-methoxy-6-phenyl-6,7,8,8a-tetrahydro-5aH-cyclopenta[4,5]furo[3,2-c]pyridin-5a-yl)benzonitrile] cannot be ordered by IC50: under 100 nM for the first, under 100 nM for the second.

`CNC[C@H]1[C@@H](O)[C@@]2(O)c3c(cc(Cl)nc3OC)O[C@@]2(c2ccc(C#N)cc2)[C@@H]1c1ccccc1` (racemic) [224F, Rac-4-((5aR,6S,7S,8R,8aS)-3-chloro-8,8a-dihydroxy-1-methoxy-7-((methylamino)methyl)-6-phenyl-6,7,8,8a-tetrahydro-5aH-cyclopenta[4,5]furo[3,2-c]pyridin-5a-yl)benzonitrile] and `CNC[C@H]1[C@@H](O)[C@@]2(O)c3c(cc(C#N)nc3OC)O[C@@]2(c2ccc(C#N)cc2)[C@@H]1c1ccccc1` (racemic) [225F, Rac-(5aR,6S,7S,8R,8aS)-5a-(4-cyanophenyl)-8,8a-dihydroxy-1-methoxy-7-((methylamino)methyl)-6-phenyl-5a,7,8,8a-tetrahydro-6H-cyclopenta[4,5]furo[3,2-c]pyridine-3-carbonitrile] cannot be ordered by IC50: under 100 nM for the first, under 100 nM for the second.

For `COc1cncc2c1[C@]1(O)[C@@H](CNC(C)(C)C)[C@H](CO)[C@@H](c3ccccc3)[C@]1(c1ccc(Br)cc1)O2` (racemic) [226F, Rac-(4bR,5R,6R,7S,7aR)-7a-(4-bromophenyl)-5-((tert-butylamino)methyl)-6-(hydroxymethyl)-4-methoxy-7-phenyl-5,6,7,7a-tetrahydro-4bH-cyclopenta[4,5]furo[2,3-c]pyridin-4b-ol], the IC50 was under 100 nM.
